Here are results for 1 substance from patent publication US7968526B2, “Antisense oligonucleotides directed to ribonucleotide reductase R2 and uses thereof in the treatment of cancer” (Lorus Therapeutics Inc., priority 2003, dated 2011).

“Also recorded” adds a separate entry of the source.

Type in all cases: in vivo, human cells in mice
Series [1] relates to A2058 human melanoma cells. Description: A2058 melanoma xenograft in CD-1 nude mice, combination with DTIC (1.6). To be noted: SEQ ID NO:1 10 mg/kg i.v. every other day, DTIC 80 mg/kg i.v. days 6-10. The procedure: (§1) After 52 days the mice were sacrificed and the tumours weighed. […] Mitoxantrone was administered intravenously once at the beginning of the treatments at a dose of 2 mg/kg (FIG. 4A) or once a week for four weeks at a reduced dose of 0.8 mg/kg (FIG. 4B). All treatments were stopped at day 50 (FIG. 4A) or 48 (FIG. 4B), respectively. […] Mitoxantrone was administered intravenously once at the beginning of the treatments at a dose of 2 mg/kg (FIG. 5A) or once a week for four weeks at a reduced dose of 0.8 mg/kg (FIG. 5B). All treatments were stopped at day 42 (FIG. 5A) or 38 (FIG. 5B), respectively. […] A2058 is a metastatic melanoma cell line. […] All treatments were stopped at day 24. […] Taxol was administered intravenously once a week at a dose of 10 mg/kg for three (FIG. 7A) or four weeks (FIG. 7C). Doxorubicin was administered intravenously once a week at a dose of 5 mg/kg for first three weeks (FIG. 7A) or for two weeks (FIG. 7C). All treatments were stopped at day 33 (FIG. 7A) or at day 26 (FIG. 7C), respectively. […] In FIG. 7C, antitumour activities were estimated by the inhibition of tumour volume, which was measured with calipers. Each point represents mean tumour volume calculated from 10 animals per experimental group. […] Taxol was administered intravenously once a week for first three weeks and intraperitoneally once a week for next two weeks at a dose of 10 mg/kg. Cisplatin was administered intravenously once a week for first three weeks and intraperitoneally once a week for next two weeks at a dose of 4 mg/kg. All treatments were stopped at day 40. Antitumour activities were estimated by the inhibition of tumour volume, which was measured with caliper. Each point represents mean tumour volume calculated from 9 animals per experimental group.

Series [2] deals with SK-OV-3 human ovarian cancer cells. Description: SK-OV-3 ovary tumour growth in Balb/c nude mice (3.4). The procedure:
Treatments lasted for 14 days thereafter. Antitumour activities were estimated by the inhibition of tumour volume, which was measured with a caliper on four different occasions over the treatment period. Each point represents mean tumour volume calculated from 5 animals per experimental group. […] Control animals (control) received saline alone for the same period. At the end of the treatments, the animals were sacrificed, tumours were excised and their weights were measured. Each bar represents mean tumour weight calculated from 6 animals per experimental group. […] Treatments lasted for 24 days thereafter. Antitumour activities were estimated by the inhibition of tumour volume, which was measured with a caliper at two-day intervals over the treatment period. Each point represents mean tumour volume calculated from 4 animals per experimental group. […] Treatments lasted for 24 days thereafter. Antitumour activities were estimated by the inhibition of tumour volume, which was measured with a caliper at two-day intervals over the treatment period. Each point represents mean tumour volume calculated from 4 animals per experimental group. […] Each point represents mean tumour volume calculated from 5 animals per experimental group. […] Antitumour activities were estimated by the inhibition of tumour volume, which was measured with a caliper on four different occasions over 16-day period. Each point represents mean tumour volume calculated from 5 animals per experimental group. […] Antitumour activities were estimated by the inhibition of tumour volume, which was measured with a caliper at two-day intervals over the treatment period. Each point represents mean tumour volume calculated from 5 animals per experimental group. […] Antitumour activities were estimated by the inhibition of tumour volume, which was measured with a caliper at various time intervals over the span of 30 days. Each point represents mean tumour volume calculated from 6 animals per experimental group. […] Antitumour activities were estimated by the inhibition of tumour volume, which was measured with a caliper. […]

Series [3] relates to SK-OV-3 human ovary adenocarcinoma cells. The series can be described thus: SK-OV-3 ovary tumour xenograft in CD-1 nude mice, combination with taxol or cisplatin (1.8). To be noted: SEQ ID NO:1 10 mg/kg i.v. every other day 17 times. The procedure:
as §1

Series [4] has as its system MDA-MB-231 human breast cancer cells. Description: MDA-MB-231 breast tumour xenograft in CD-1 nude mice, combination with taxol or doxorubicin (1.7). The following applies: doxorubicin 5 mg/kg i.v. weekly. The procedure:
as §1

Turning to “5′-GGCTAAATCGCTCCACCAAG-3′ (all phosphorothioate, sugars by position and methylation of C not given here) [SEQ ID NO: 1, fully phosphorothioated antisense oligonucleotide that hybridizes to the coding region of R2 mRNA]”, the “Tumour weight as % of saline control” value in series [1] (A2058 (melanoma), CD-1) was found to be 20%; in series [4] (MDA-MB-231 (breast), CD-1, SEQ ID NO:1 10 mg/kg i.v. every other day, Taxol 10 mg/kg i.v. weekly), 12.6%. In addition, the “Antitumour effect (tumour weight, FIG. 6)” value in series [1] (A2058, CD-1 nude mice) is “significant delay of tumour growth compared to saline control; also recorded: superior to the inhibitory effects observed with DTIC alone”. Further, the “Inhibition of tumour weight” value in series [2] (Human Ovary Adenocarcinoma) was “tumour weight of approximately 50%”. Moreover, in series [2] (Human Ovary Adenocarcinoma in Balb/c Nu-Nu mice, Days 19 to 25 after tumour implantation), the “Inhibition of tumour size” value is “Inhibition of tumour size by approximately 35%”. Moreover, the “Inhibitory effect on tumour growth (tumour volume, FIG. 18C)” value in series [2] (SK-OV-3, Balb/c nude mice, 10 mg/kg i.v. every other day, 22 days) was “statistically significant inhibitory effects on the growth of human ovary adenocarcinoma cells”. Besides, the “tumour volume data as percentage of saline control” value in series [3] (SK-OV-3 (ovary), CD-1, Taxol 10 mg/kg weekly, Cisplatin 4 mg/kg weekly) is 42%. Also, the “Antitumour effect (tumour volume, FIG. 8)” value in series [3] (SK-OV-3, CD-1 nude mice, taxol 10 mg/kg, cisplatin 4 mg/kg weekly) is “significant delay of tumour growth compared to saline control”. In addition, the “Antitumour effect (tumour weight / volume, FIG. 7)” value in series [4] (MDA-MB-231, CD-1 nude mice, oligonucleotides 10 mg/kg i.v. every other day, taxol 10 mg/kg) is “delay of tumour growth compared to saline control in all three experiments; also recorded: superior to the inhibitory effects observed with taxol or doxorubicin alone”.
